# Results taken from PMC9444293 (Investigative Radiology, 2022).
# Like-named read-outs stand apart in the source and are kept apart here. Marks after values point to notes of the source that are not given here.
# How the values were obtained:
# [1] = formulation; ref Port et al, 24; cited from earlier work
# [2] = assay type: physicochemical; conditions: 37°C, pH 7.4, 21 days, LLOQ 0.1 nmol Gd/g
# [3] = rat
# [4] = assay type: physicochemical; conditions: after 3 days
# [5] = IV 0.1 mmol Gd/kg bw
# [6] = ref Szomolanyi et al, 23; cited from earlier work
# Partition coefficient = assay type: physicochemical; conditions: pH 7.4, room temperature
# [7] = market formulation; ref Port et al, 24; cited from earlier work
# [8] = cited from earlier work
# [9] = Number of inner sphere water molecules; assay type: physicochemical; conditions: per Gd
# [10] = ref Port et al, 24; cited from earlier work
# [11] = pH 7.4; cited from earlier work
# [12] = 7 days after single IV 0.1 mmol Gd/kg bw
# [13] = 7 days after single IV 0.1 mmol Gd/kg bw, LLOQ 0.05
compound,measurement,setting,value
"O=C([O-])CN1CCN(CC(=O)[O-])CCN([C@H](CO)[C@H](O)CO)CCN(CC(=O)[O-])CC1.[Gd+3] (racemic) [Gadobutrol, gadobutrol, reference compound]",Viscosity at 37°C,[1],5.0∥ mPa·s
same,Gd release after 21 days in human serum (below LLOQ),[2],< 0.1 nmol Gd/g
same,"Gadolinium concentration, Bone marrow",[3]; [12],0.628 ± 0.420 nmol Gd/g wet tissue
same,"Gadolinium concentration, Carcass",[3]; [12],0.590 ± 0.162 nmol Gd/g wet tissue
same,"Gadolinium concentration, Heart",[3]; [12],0.127 ± 0.004 nmol Gd/g wet tissue
same,"Gadolinium concentration, Intestine",[3]; [12],0.453 ± 0.233 nmol Gd/g wet tissue
same,"Gadolinium concentration, Kidney",[3]; [12],19.6 ± 1.47 nmol Gd/g wet tissue
same,"Gadolinium concentration, Liver",[3]; [12],0.312 ± 0.054 nmol Gd/g wet tissue
same,"Gadolinium concentration, Lung",[3]; [12],0.218 ± 0.046 nmol Gd/g wet tissue
same,"Gadolinium concentration, Mesenterial lymph nodes",[3]; [12],0.631 ± 0.113 nmol Gd/g wet tissue
same,"Gadolinium concentration, Muscle",[3]; [12],0.074 ± 0.013 nmol Gd/g wet tissue
same,"Gadolinium concentration, Skin",[3]; [12],0.202 ± 0.057 nmol Gd/g wet tissue
same,"Gadolinium concentration, Spleen",[3]; [12],0.382 ± 0.101 nmol Gd/g wet tissue
same,"Gadolinium concentration, Stomach",[3]; [12],0.155 ± 0.010 nmol Gd/g wet tissue
same,"Gadolinium concentration, Blood",[3]; [13],<0.05* nmol Gd/g wet tissue
same,"Gadolinium concentration, Brain",[3]; [13],<0.05* nmol Gd/g wet tissue
same,"Gadolinium concentration, Bone","[3]; femur, 7 days after single IV 0.1 mmol Gd/kg bw",1.013 ± 0.767 nmol Gd/g wet tissue
same,"Amount of Gd recovered in Feces, 0–5 d","[3]; in vivo, iv",1.44% ± 1.2%
same,"Amount of Gd recovered in Urine, 0–1 d","[3]; in vivo, iv",99.2% ± 1.5%
same,"Amount of Gd recovered in Urine, 0–5 d","[3]; in vivo, iv",100% ± 1.6%
same,"Total recovery of Gd, 0–7 d","[3]; in vivo, iv",102% ± 4.1%
same,Decrease of the T1 relaxation rates (R1) in zinc transmetallation assay,[4],no change
same,AUC^∞,[5]; rat plasma,234 ± 10 (4.3%) μmol·h/L
same,γ-AUC,[5]; rat plasma,1.1 % of AUC^∞
same,γ-AUC,"[5]; rat plasma, listed as gadobutrol",1 % of AUC^∞
same,Clplasma,[5]; rat,0.43 ± 0.02 (4.3%) L/h/kg
same,Vss,[5]; rat,0.29 ± 0.03 (9.1%) L/kg
same,β t1/2,"[5]; rat, 3-compartment model",22 ± 0.69 (3.2%) min
same,γ t1/2,"[5]; rat, 3-compartment model",13 ± 2.0 (16%) h
same,α t1/2,"[5]; rat, 3-compartment model, mean estimate ± SD (CV%)",2.5 ± 1.1 (42%) min
same,"r1-Relaxivity in Human Plasma at 37°C, 3.0 T",[6],5.0 ± 0.6§ mM^−1 s^−1
same,Log P (1-Butanol/Buffer),Partition coefficient,−2.22
same,Osmolality at 37°C,[7],1603∥ mosmol/kg H2O
same,"r1-Relaxivity in Human Plasma at 37°C, 1.5 T","[8]; ref Szomolanyi et al, 23, listed as gadobutrol",4.8 mM⁻¹ s⁻¹
same,"r1-Relaxivity in Human Plasma at 37°C, 1.5 T","[8]; ref Szomolanyi et al, 23",4.8 ± 0.1§ mM^−1 s^−1
same,No. Inner Sphere Water Molecules (q),[9],q = 1
"CNC[C@H](O)[C@@H](O)[C@H](O)[C@H](O)CO.CNC[C@H](O)[C@@H](O)[C@H](O)[C@H](O)CO.O=C([O-])CN(CCN(CC(=O)[O-])CC(=O)O)CCN(CC(=O)[O-])CC(=O)O.[Gd+3] [Gadopentetate dimeglumine, gadopentetate dimeglumine]",Decrease of the T1 relaxation rates (R1) in zinc transmetallation assay,[4],66%
"CNC[C@H](O)[C@@H](O)[C@H](O)[C@H](O)CO.O=C([O-])CN1CCN(CC(=O)[O-])CCN(CC(=O)O)CCN(CC(=O)[O-])CC1.[Gd+3] [Gadoterate meglumine, gadoterate meglumine]",Viscosity at 37°C,[1],2.0∥ mPa·s
same,Log P (1-Butanol/Buffer),[10],−2.87∥
same,Decrease of the T1 relaxation rates (R1) in zinc transmetallation assay,[4],no change
same,"r1-Relaxivity in Human Plasma at 37°C, 3.0 T",[6],3.0 ± 0.1§ mM^−1 s^−1
same,Osmolality at 37°C,[7],1350∥ mosmol/kg H2O
same,"r1-Relaxivity in Human Plasma at 37°C, 1.5 T","[8]; ref Szomolanyi et al, 23, listed as gadoterate meglumine",3.3 mM⁻¹ s⁻¹
same,"r1-Relaxivity in Human Plasma at 37°C, 1.5 T","[8]; ref Szomolanyi et al, 23",3.3 ± 0.1§ mM^−1 s^−1
same,No. Inner Sphere Water Molecules (q),[9],q = 1
CC(O)CN1CCN(CC(=O)[O-])CCN(CC(=O)[O-])CCN(CC(=O)[O-])CC1.[Gd+3] (centres unmarked) [Gadoteridol],Viscosity at 37°C,[1],1.3∥ mPa·s
same,Log P (1-Butanol/Buffer),[10],−1.98∥
same,"r1-Relaxivity in Human Plasma at 37°C, 3.0 T",[6],3.3 ± 0.1§ mM^−1 s^−1
same,Osmolality at 37°C,[7],630∥ mosmol/kg H2O
same,"r1-Relaxivity in Human Plasma at 37°C, 1.5 T","[8]; ref Szomolanyi et al, 23",3.8 ± 0.1§ mM^−1 s^−1
same,No. Inner Sphere Water Molecules (q),[9],q = 1
Gadopiclenol,log Kcond,[11],15.5
Gd-PCTA,log Kcond,[11],15.5
